Source: ChEMBL document CHEMBL3217459, “3-Diarylethyne quinazolinones: a new class of senescence inducers” (Medchemcomm, 2013)
The source made the active and inactive calls. The rule behind the calls is not given here.

Columns and labels:
[1] = system: MCF7; experiment: Induction of senescence in human MCF7 cells expressing wild type p53 at 4 uM after 24 hrs by Western blot analysis; type: functional, cell-based
[2] = system: MCF7; experiment: Cell cycle arrest in human MCF7 cells assessed as accumulation at G2/M phase at 4 uM after 24 hrs using propidium iodide staining by FACS analysis (reference value: 19%); type: functional
[3] = system: MCF7; experiment: Cell cycle arrest in human MCF7 cells assessed as accumulation at S phase at 4 uM after 24 hrs using propidium iodide staining by FACS analysis (reference value: 11%); type: functional
[4] = system: MCF7; experiment: Cell cycle arrest in human MCF7 cells assessed as accumulation at G1 phase at 4 uM after 24 hrs using propidium iodide staining by FACS analysis (reference value: 70%); type: functional
[5] = Cytotoxicity against human MCF10A cells assessed as cell viability after 48 hrs by MTT assay; type: cell-based; conditions: MCF-10A
[6] = system: COLO 205; experiment: Cytotoxicity against human COLO205 cells assessed as cell viability after 48 hrs by MTT assay; type: functional, cell-based; conditions: COLO 205, 48 h
[7] = Cytotoxicity against human MIAPaCa2 cells assessed as cell viability after 48 hrs by MTT assay; type: functional, cell-based; conditions: MIA PaCa-2, 48 h
[8] = system: A549; experiment: Cytotoxicity against human A549 cells assessed as cell viability after 48 hrs by MTT assay; type: functional, cell-based; conditions: A549, 48 h
[9] = system: MDA-MB-231; experiment: Cytotoxicity against human MDA-MB-231 cells assessed as cell viability after 48 hrs by MTT assay; type: functional, cell-based; conditions: MDA-MB-231, 48 h
[10] = system: MCF7; experiment: Cytotoxicity against human MCF7 cells assessed as cell viability after 48 hrs by MTT assay; type: functional, cell-based; conditions: MCF7, 48 h
[11] = system: HCT-116; experiment: Induction of senescence in human HCT116 cells assessed as increase in p16 expression at 4 uM after 24 hrs by Western blot analysis; type: functional, cell-based
[12] = system: SW116; experiment: Induction of senescence in human SW116 cells assessed as increase in p21 expression at 4 uM after 24 hrs by Western blot analysis; type: functional, cell-based
[13] = system: HCT-116; experiment: Induction of senescence in human HCT116 cells assessed as increase in p21 expression at 4 uM after 24 hrs by Western blot analysis; type: functional, cell-based
[14] = system: MCF7; experiment: Induction of senescence in human MCF7 cells assessed as decrease in SKP2 expression at 4 uM after 24 hrs by Western blot analysis; type: functional, cell-based
[15] = system: MCF7; experiment: Induction of senescence in human MCF7 cells assessed as increase in p16 expression at 4 uM after 24 hrs by Western blot analysis; type: functional, cell-based
[16] = system: MCF7; experiment: Induction of senescence in human MCF7 cells assessed as increase in p21 expression at 4 uM after 24 hrs by Western blot analysis; type: functional, cell-based
[17] = system: MCF7; experiment: Induction of senescence in human MCF7 cells assessed as increase in p53 expression at 4 uM after 24 hrs by Western blot analysis; type: functional, cell-based
[18] = system: MDA-MB-231; experiment: Induction of senescence in human MDA-MB-231 cells expressing mutant p53 at 4 uM after 24 hrs by Western blot analysis; type: functional, cell-based
[19] = system: MCF7 (Homo sapiens); experiment: Induction of senescence in human MCF7 cells assessed as increase in p16 expression at 4 uM after 24 hrs by Western blot analysis
[20] = system: MCF7; experiment: Induction of senescence in human MCF7 cells assessed as blue colotation and adopted a flattened morphology with spread out cytoplasm at 4 uM after 72 hrs by SA-beta-gal assay; type: functional, cell-based
[21] = system: MCF7; experiment: Cytotoxicity against human MCF7 cells assessed as cell viability at 4 uM after 48 hrs by MTT assay; type: functional
[22] = system: MCF7; experiment: Cytotoxicity against human MCF7 cells assessed as cell viability at 2 uM after 48 hrs by MTT assay; type: functional
[23] = molecular target: Telomerase reverse transcriptase (Homo sapiens) (UniProt O14746); experiment: Inhibition of telomerase activity in human MCF7 cells assessed as un-repairable DNA damage at 4 uM after 24 hrs; type: cell-based
[24] = system: MCF7; experiment: Induction of DNA damage in human MCF7 cells assessed as increase in gamma H2AX level measured at 4 uM after 24 hrs by Western blot analysis; type: functional, cell-based
[25] = system: MCF7; experiment: Induction of DNA damage in human MCF7 cells assessed as decrease in TRF2 level measured at 4 uM after 24 hrs by Western blot analysis; type: functional, cell-based
[26] = system: MCF7; experiment: Induction of DNA damage in human MCF7 cells assessed as increase in POT1 level measured at 4 uM after 24 hrs by Western blot analysis; type: functional, cell-based
[27] = system: MCF7; experiment: Induction of DNA damage in human MCF7 cells assessed as increase in TRF1 level measured at 4 uM after 24 hrs by Western blot analysis; type: functional, cell-based
[28] = molecular target: Telomerase reverse transcriptase (Homo sapiens) (UniProt O14746); experiment: Inhibition of telomerase activity in human A549 cells at 4 uM after 24 hrs by TRAP eze XL telomerase assay

Chain of Telomerase reverse transcriptase (Homo sapiens) (O14746 whole entry): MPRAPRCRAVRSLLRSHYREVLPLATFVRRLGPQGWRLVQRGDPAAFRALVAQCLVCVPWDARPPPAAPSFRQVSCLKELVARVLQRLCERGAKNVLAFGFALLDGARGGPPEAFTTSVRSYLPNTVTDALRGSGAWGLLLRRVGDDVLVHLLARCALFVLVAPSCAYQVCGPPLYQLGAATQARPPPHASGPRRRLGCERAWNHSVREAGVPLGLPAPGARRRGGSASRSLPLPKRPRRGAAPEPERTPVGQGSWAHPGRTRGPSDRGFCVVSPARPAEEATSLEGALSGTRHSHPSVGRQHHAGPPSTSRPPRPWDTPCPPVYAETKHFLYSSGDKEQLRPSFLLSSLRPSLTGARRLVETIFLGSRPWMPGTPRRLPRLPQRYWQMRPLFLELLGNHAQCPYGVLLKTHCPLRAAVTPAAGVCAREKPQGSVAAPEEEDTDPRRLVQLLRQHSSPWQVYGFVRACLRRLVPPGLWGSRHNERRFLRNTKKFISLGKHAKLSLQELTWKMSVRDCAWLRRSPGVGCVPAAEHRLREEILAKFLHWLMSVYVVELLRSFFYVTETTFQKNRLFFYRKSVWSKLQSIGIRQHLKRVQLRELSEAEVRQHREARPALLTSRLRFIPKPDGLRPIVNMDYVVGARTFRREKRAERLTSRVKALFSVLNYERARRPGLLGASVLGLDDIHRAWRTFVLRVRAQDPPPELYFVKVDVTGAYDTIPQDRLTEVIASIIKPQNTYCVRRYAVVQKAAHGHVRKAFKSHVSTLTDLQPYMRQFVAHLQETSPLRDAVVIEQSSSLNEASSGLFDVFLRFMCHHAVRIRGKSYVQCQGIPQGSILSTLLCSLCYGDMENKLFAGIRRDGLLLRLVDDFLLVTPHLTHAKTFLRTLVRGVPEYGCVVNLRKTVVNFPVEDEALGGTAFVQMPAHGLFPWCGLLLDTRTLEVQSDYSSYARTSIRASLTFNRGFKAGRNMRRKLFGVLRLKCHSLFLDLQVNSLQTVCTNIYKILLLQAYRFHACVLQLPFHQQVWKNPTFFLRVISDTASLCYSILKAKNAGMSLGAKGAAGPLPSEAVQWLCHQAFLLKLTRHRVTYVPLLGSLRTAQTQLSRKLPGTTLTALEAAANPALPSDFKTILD

Structure (SMILES) | Activity [2] [%] | Activity [3] [%] | Activity [4] [%] | IC50 [5] [µM] | IC50 [6] [µM] | IC50 [7] [µM] | IC50 [8] [µM] | IC50 [9] [µM] | IC50 [10] [µM] | Activity [11] | Activity [12] | Activity [13] | inhibition [14] | Activity [15] | Activity [16] | Activity [17] | Activity [19] | OD [21] | OD [22] | inhibition [23] | further results
COc1cccc2c1C(=O)c1c(O)c3c(c(O)c1C2=O)C[C@@](O)(C(=O)CO)C[C@@H]3O[C@H]1C[C@H](N)[C@H](O)[C@H](C)O1 [DOXORUBICIN] | 16 | 2 | 82 | 31 | 0.37 | 0.14 | 0.73 | 0.16 | 0.1 | Active | Active | Active | Active | Active | Active | Active | Active |  |  |  | Activity [1]: Active; Activity [18]: inactive
Cc1cc(C#Cc2ccc(C(C)(C)C)cc2)ccc1-n1c(/C=C/c2c(Cl)cccc2Cl)nc2ccccc2c1=O | 5 | 2 | 93 | 15 | 4.85 | 5.29 | 5.6 | 5.44 | 2.27 | Active | Active | Active | Active | Active | Active | Active | Active | 0.39 | 0.77 | Active | Activity [1]: Active; Activity [20]: Active; Activity [24]: Active; inhibition [25]: Active; Activity [26]: Active; Activity [27]: Active; Activity [18]: inactive; inhibition [28]: Active
COc1cc(/C=C/c2nc3ccccc3c(=O)n2-c2ccc(C#Cc3ccccc3)cc2C)cc(OC)c1OC | 5 | 5 | 90 | 8 | 6.24 | 6.01 | 6.54 | 5.56 | 2.46 | Active | Active | Active | Active | Active | Active | Active | Active | 0.27 | 0.47 | Active | Activity [24]: Active; inhibition [25]: Active; Activity [26]: Active; Activity [27]: Active
COc1ccc(/C=C/c2nc3ccccc3c(=O)n2-c2ccc(C#Cc3ccc(C(C)(C)C)cc3)cc2C)cc1OC | 6 | 3 | 91 | 13 | 5.68 | 5.89 | 6.15 | 5.84 | 2.72 | Active | Active | Active | Active | Active | Active | Active | Active | 0.27 | 0.41 | Active | Activity [24]: Active; inhibition [25]: Active; Activity [26]: Active; Activity [27]: Active
COc1ccc(/C=C/c2nc3ccccc3c(=O)n2-c2ccc(C#Cc3ccc(C(C)(C)C)cc3)cc2C)cc1O | 5 | 4 | 91 | 12 | 5.19 | 6.8 | 5.74 | 5.69 | 3.88 | Active | Active | Active | Active | Active | Active | Active | Active | 0.27 | 0.84 | Active | Activity [24]: Active; inhibition [25]: Active; Activity [26]: Active; Activity [27]: Active
Cc1cc(C#Cc2ccc(C(C)(C)C)cc2)ccc1-n1c(/C=C/c2ccnc3ccccc23)nc2ccccc2c1=O | 4 | 2 | 94 | 28 | 5.44 | 5.21 | 5.87 | 5.44 | 2.45 | Active | Active | Active | Active | Active | Active | Active | Active | 0.24 | 0.59 | Active | Activity [1]: Active; Activity [20]: Active; Activity [24]: Active; inhibition [25]: Active; Activity [26]: Active; Activity [27]: Active; Activity [18]: inactive; inhibition [28]: Active
